US20100003217A1, “Compounds and Pharmaceutical Compositions for the Treatment of Viral Infections” (priority 2008, published 2010)

Columns and labels:
Type in all cases: in vitro ADME
[1] = Stability in monkey liver microsomes; conditions: for % Residual Compound 2 / % Residual Compound 1: monkey liver microsomes 1 mg/mL; for % Residual Compound 2: 15 min; for NADPH-dependent metabolism: monkey liver microsomes; for % Residual compound following incubation with liver microsomes: monkey microsomes 1 mg/mL
Method: (§1) Disappearance of parent Compound 1 was used to evaluate the in vitro metabolism thereof. Relative levels of unchanged Compound 1 were measured by HPLC-UV method 1. Residual Compound 1 is reported as percent difference from time zero or control. The HPLC-UV system was as follows:
(§2) Incubations with liver microsomes or cytosol were conducted in a final volume of 0.1 mL per incubation time point. […] DMSO (final DMSO concentration was 0.1%) was incubated at 37° C. from 0-60 min with pooled microsomal protein (1.0 mg/mL), suspended in incubation buffer (0.1 M potassium phosphate, pH 7.4, 5 mM MgCl2, and 0.1 mM EDTA). The microsomal reaction was initiated by the addition of NADPH (3 mM final concentration). Incubations with (a) no protein or (b) no NADPH served as controls. Reactions were terminated by the addition of 0.2 mL of stop solution (acetonitrile). The samples were vortex-mixed for 30 sec and then centrifuged at 10,000×g for 10 min. The supernatant was dried using a Labconco CentriVap concentrator and the dry residue reconstituted in water, transferred to an HPLC glass vial and analyzed by HPLC-UV method 1 (described above).
(§3) Metabolic stability of the proposed metabolites was conducted by incubating the chemically synthesized standards Compound 2, Compound 4 and Compound 3 as described above for Compound 1. When possible, formation of Compound 5 was verified by incubating samples with alkaline phosphatase (10 U) for 60 min at 37° C.

[2] = Stability in rat liver microsomes; conditions: for % Residual Compound 2 / % Residual Compound 1: rat liver microsomes 1 mg/mL; for % Residual Compound 2: 15 min; for NADPH-dependent metabolism: rat liver microsomes; for % Residual compound following incubation with liver microsomes: rat microsomes 1 mg/mL
Method: as §1, §2, §3

[3] = Incubation with monkey liver cytosol; conditions: monkey cytosol 1 mg/mL, 2 hours, 10 μM
Method: (§4) Pooled liver cytosol (1.0 mg protein/mL) suspended in incubation buffer (0.1 M potassium phosphate, pH 7.4) was incubated for 2 hours at 37° C. with 10 μM Compound 1 from a stock solution in DMSO (final DMSO concentration was 0.1%); reaction was initiated with the addition of test article. Incubations with no protein served as control. Reactions were terminated by the addition of 0.1 mL of stop solution (acetonitrile). The samples were vortex-mixed for 30 sec and then centrifuged at 10,000×g for 10 min. The supernatant was dried using a Labconco CentriVap concentrator and the dry residue reconstituted in water, transferred to an HPLC glass vial and analyzed by HPLC-UV method 2 (described above).
as §3

[4] = Incubation with human liver cytosol; conditions: human cytosol 1 mg/mL, 2 hours, 10 μM
Method: as §4, §3

pig liver esterase = assay: Incubation with pig liver esterase; conditions: for Residual compound following incubation with pig liver esterase: Esterase 14 U, 60 min, 10 μM
Method: as §4, with “Pig” for “Pooled”, “esterase (14 U)” for “cytosol (1.0 mg protein/mL)”, “60 min” for “2 hours”, “controls.” for “control.”
as §3

## C[C@@]1(O)[C@H](O)[C@@H](COP(=O)(O)NCc2ccccc2)O[C@H]1n1cnc2c(=O)[nH]c(N)nc21 [Compound 2, [(2R)-2-methyl-β-D-ribofuranosyl]guanine-N-benzylaminyl-5′-monophosphate]
[1]; 10 μM, NADPH
  % Residual Compound 2: 19%
[1]; 10 μM, No Cofactor
  % Residual Compound 2: 0%
[2]; 10 μM, NADPH
  % Residual Compound 2: 0%
[2]; 10 μM, No Cofactor
  % Residual Compound 2: 0%
[3]
  Residual compound following incubation with liver cytosol: 0%
[4]
  Residual compound following incubation with liver cytosol: 0%
Pig liver esterase
  Residual compound following incubation with pig liver esterase: 0%

## CC(C)(CO)C(=O)SCCOP(=O)(NCc1ccccc1)OC[C@H]1O[C@@H](n2cnc3c(=O)[nH]c(N)nc32)[C@](C)(O)[C@@H]1O (mixture of isomers) [Compound 1, 3-hydroxy-2,2-dimethyl-thiopropionic acid S-(2-{[(2R,3R,4R,5R)-5-(2-amino-6-oxo-1,6-dihydro-purin-9-yl)-3,4-dihydroxy-4-methyl-tetrahydro-furan-2-ylmethoxy]-benzylamino-phosphoryloxy}-ethyl) ester]
[1]; 10 μM, 0 min, NADPH
  % Residual Compound 1: 100%
[1]; 10 μM, 0 min, No Cofactor
  % Residual Compound 1: 100%
[1]; 10 μM, 30 min, NADPH
  % Residual Compound 1: 0%
[1]; 10 μM, 30 min, No Cofactor
  % Residual Compound 1: 81%
[1]; 10 μM, 60 min, NADPH
  % Residual Compound 1: 0%
[1]; NADPH, 30 min, 10 μM
  NADPH-dependent metabolism: 100%
[2]; 10 μM, 0 min, NADPH
  % Residual Compound 1: 100%
[2]; 10 μM, 0 min, No Cofactor
  % Residual Compound 1: 100%
[2]; 10 μM, 30 min, NADPH
  % Residual Compound 1: 53%
[2]; 10 μM, 30 min, No Cofactor
  % Residual Compound 1: 103%
[2]; 10 μM, 60 min, NADPH
  % Residual Compound 1: 36%
[2]; 10 μM, 60 min, No Cofactor
  % Residual Compound 1: 103%
[2]; NADPH, 60 min, 10 μM
  NADPH-dependent metabolism: 64%
[3]
  Residual compound following incubation with liver cytosol: 100%
[4]
  Residual compound following incubation with liver cytosol: 100%
Pig liver esterase
  Residual compound following incubation with pig liver esterase: 75%
Pig liver esterase; pig liver esterase, 60-min incubation
  Compound 1 converted to Compound 2: 25%

## CC(C)(CO)C(=O)SCCOP(N)(=O)OC[C@H]1O[C@@H](n2cnc3c(=O)[nH]c(N)nc32)[C@](C)(O)[C@@H]1O (mixture of isomers) [Compound 3, {9-[(2R)2-C-methyl-β-D-ribo-furanosyl]-guanin}-5′-yl-O-(hydroxy-tert-butyl-S-acyl-2-thioethyl) phosphoramidate]
[1]; 60 min, 50 μM
  NADPH-dependent metabolism: 20-30%
[1]; 60 min, 50 μM, NADPH
  % Residual compound following incubation with liver microsomes: 76%
[1]; 60 min, 50 μM, No Cofactor
  % Residual compound following incubation with liver microsomes: 89%
[2]; 60 min, 50 μM
  NADPH-dependent metabolism: 10%
[2]; 60 min, 50 μM, NADPH
  % Residual compound following incubation with liver microsomes: 90%
[2]; 60 min, 50 μM, No Cofactor
  % Residual compound following incubation with liver microsomes: 101%
[3]
  Residual compound following incubation with liver cytosol: 99%
[4]
  Residual compound following incubation with liver cytosol: 100%
Pig liver esterase
  Residual compound following incubation with pig liver esterase: 97%
